From patent US12398160B2, “Cot modulators and methods of use thereof” (Gilead Sciences, Inc., priority 2019, dated 2025)
One block for each compound: values may come before it.

Assay: In vivo dog pharmacokinetics
Details: for AUC0-72 h: beagle dogs N=3
[1] = plasma level of the labelled analyte after oral dose of Compound B (9.7 mg-eq/kg), powder in capsule

AUC0-72 h for Compound A in plasma, dosing with Compound B compared with equivalent dose of Compound A (beagle dogs, powder in capsule, after dosing with Compound B versus Compound A): higher
SMILES: Cn1ccc2c([C@H](Nc3cc(Cl)c4ncc(C#N)c(NCC(C)(C)C)c4c3)c3cn(C45CC(C4)C5)nn3)cccc2c1=O [Compound A]

AUC0-72 h [1]: BLQ
SMILES: Cn1ccc2c([C@@H](c3cn(C45CC(C4)C5)nn3)N(C(=O)OCOP(=O)(O)O)c3cc(Cl)c4ncc(C#N)c(NCC(C)(C)C)c4c3)cccc2c1=O [Compound B]

AUC0-72 h (plasma level of the labelled analyte after oral dose of Compound C (3 mg-eq/kg), 3 mg/mL solution): BLQ
SMILES: Cn1ccc2c([C@@H](c3cn(C45CC(C4)C5)nn3)N(C(=O)OCCCOP(=O)(O)O)c3cc(Cl)c4ncc(C#N)c(NCC(C)(C)C)c4c3)cccc2c1=O [Compound C]
In vivo conversion after dosing (beagle dogs, Compound C solution formulation, 72 hour period): converted in vivo to both Compound D and Compound A in measurable amounts

AUC0-72 h [1]: BLQ
SMILES: Cn1ccc2c([C@@H](c3cn(C45CC(C4)C5)nn3)N(C(=O)OCO)c3cc(Cl)c4ncc(C#N)c(NCC(C)(C)C)c4c3)cccc2c1=O [Intermediate A]
